Measurements published in article PMC6934227, “GPR101 mediates the pro-resolving actions of RvD5n-3 DPA in arthritis and infections” (The Journal of Clinical Investigation, 2019).

Key:
Format in all cases: cell-based
GPR32 (DRV1) [1] = target: T1, GPR32 (DRV1) (Homo sapiens, UniProt O75388); assay: PathHunter β-arrestin recruitment in CHO cells (reference agonist)
T1 construct: CHO cells stably expressing human recombinant GPR32 coupled to a β-arrestin reporter system

GPR101 = target: T2, GPR101 (Homo sapiens, UniProt Q96P66); assay: tritiated radioligand saturation binding on GPR101-overexpressing CHO cells (plus homologous competition, IC50 […])
T2 construct: GPR101-overexpressing CHO cells
T2 sequence (Q96P66 1-508): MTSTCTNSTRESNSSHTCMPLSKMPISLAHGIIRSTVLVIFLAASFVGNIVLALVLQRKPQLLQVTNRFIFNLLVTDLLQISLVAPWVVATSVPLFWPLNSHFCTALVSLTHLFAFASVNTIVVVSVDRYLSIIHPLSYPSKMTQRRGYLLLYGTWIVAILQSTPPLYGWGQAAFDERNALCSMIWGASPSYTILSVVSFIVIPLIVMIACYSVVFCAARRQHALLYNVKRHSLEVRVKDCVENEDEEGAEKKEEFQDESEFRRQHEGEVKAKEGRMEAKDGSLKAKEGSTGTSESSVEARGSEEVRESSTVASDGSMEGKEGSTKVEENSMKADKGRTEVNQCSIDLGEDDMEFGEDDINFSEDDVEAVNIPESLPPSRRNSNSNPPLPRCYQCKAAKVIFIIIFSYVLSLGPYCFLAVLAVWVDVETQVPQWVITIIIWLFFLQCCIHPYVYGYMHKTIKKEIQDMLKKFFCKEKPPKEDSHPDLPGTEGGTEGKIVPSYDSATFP
From the text: These experiments yielded a calculated KD

GPR32 (DRV1) [2] = target: T1, GPR32 (DRV1); assay: PathHunter β-arrestin recruitment in CHO cells

T1 sequence (O75388 whole entry): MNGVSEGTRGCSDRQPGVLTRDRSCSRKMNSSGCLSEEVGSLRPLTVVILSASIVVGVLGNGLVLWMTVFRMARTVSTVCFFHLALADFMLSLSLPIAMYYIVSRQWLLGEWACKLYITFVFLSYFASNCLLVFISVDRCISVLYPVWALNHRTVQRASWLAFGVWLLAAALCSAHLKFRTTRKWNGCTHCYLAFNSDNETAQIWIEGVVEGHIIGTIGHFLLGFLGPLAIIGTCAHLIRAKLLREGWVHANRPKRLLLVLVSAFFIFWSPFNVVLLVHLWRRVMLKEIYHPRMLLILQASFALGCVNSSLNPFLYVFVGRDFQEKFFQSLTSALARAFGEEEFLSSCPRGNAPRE

| Compound | EC50 (GPR32 (DRV1) [1]) | Kd (GPR101) | EC50 (GPR32 (DRV1) [2]) |
| --- | --- | --- | --- |
| CC/C=C\C[C@H](O)/C=C/C=C\C=C\C=C\[C@@H](O)[C@@H](O)C/C=C\CCC(=O)O [RvD1, 7S,8R,17S-trihydroxy-4Z,9E,11E,13Z,15E,19Z-docosahexaenoic acid] | ~0.0015 nM | – | – |
| CC/C=C\C[C@H](O)/C=C/C=C\C/C=C\C=C\[C@@H](O)CCCCCC(=O)O [RvD5n-3 DPA, 7S,17S-dihydroxy-8E,10Z,13Z,15E,19Z-docosapentaenoic acid] | – | ~6.9 nM | ~0.014 nM |
